# Data published in article PMC12040169 (PLOS Biology, 2025).
# Experiment: in vitro
# Conditions: human, hela cells, % viability
row,SMILES,"viability at 28.5 h, 10 µM"
1,Cc1noc(C)c1NC(=O)c1cncn1C [CBK200396],115%
2,N#Cc1ccccc1CSc1ncn[nH]1 [CBK027835],95.1%
3,Nc1nc(C2CC(N)C2)cc(N2CCC(Oc3ccccc3Cl)CC2)n1 (stereo not shown) [CBK307356],88.6%
4,COc1ccc(S(=O)(=O)N2CCN(C(=O)c3ccc(C(C)(C)C)cc3)CC2)cc1 [CBK157251],111%
5,COc1cc(C(=O)ON=C(N)Cc2cccc3ccccc23)cc(OC)c1OC [CBK264611],95.9%
6,O=C(C(CO)c1ccccc1)N1CCC2(CCN(CCCCOc3ccccc3)C2)C1 (stereo not shown) [CBK161722],90%
7,Cn1ccnc1Sc1nc2ccccc2nc1N1CCCC1 [CBK093791],92.4%
8,O=c1c2c3c(sc2ncn1Cc1nn[nH]n1)CCCC3 [CBK269808],83.9%
9,O=C1c2ccccc2C(=O)N1CCCc1nc2c3c4c(sc3ncn2n1)CCCCC4 [CBK268540],93.4%
10,Cc1cn2c3c(=O)n(CCN4CCOCC4)c(=O)n(C)c3nc2n1CC1CCCO1 (stereo not shown) [CBK269985],92.3%
11,OCCN1CC2(CCN(CCC(c3ccccc3)c3ccccc3)CC2)c2ccccc21 [CBK126765],88.9%
12,O=C(COc1ccc2c(c1)OCO2)NCc1ccccn1 [CBK269983],95.3%
13,CC(c1ccccc1)N1CCn2c(nc3cc(NC(=O)COc4ccccc4)ccc32)C1 (stereo not shown) [CBK268033],105%
14,CC(=O)N1C[C@@H](c2ccsc2)[C@@H]2CN(Cc3ccccc3)CC[C@@H]21 [CBK284585],109%
15,CN(C)CCCN(Cc1cnn(-c2ccccc2)c1)Cc1ccco1 [CBK283040],110%
16,Cc1cccnc1NC(=S)NC(=O)c1ccc([N+](=O)[O-])cc1 [CBK263931],92.9%
17,Cn1c(C(=O)OCC(=O)NC(C)(C)C)cc2occc21 [CBK284015],109%
18,Cn1c(=O)n(CC(N)=O)c(=O)c2c1nc1oc(C(C)(C)C)cn12 [CBK306081],96.5%
19,Cc1n[nH]c(C)c1Sc1ccccc1/N=C/c1ccc([N+](=O)[O-])cc1 [CBK262045],87.4%
20,C=C(C)Cn1c(SC(C)C)nnc1-c1cccnc1 [CBK200073],85.7%
21,O=C(c1cccs1)N1CCOC(Cn2ccnc2)C1 (stereo not shown) [CBK282256],103%
22,O=[N+]([O-])c1ccc(CN2CCC(Oc3nccnc3OCc3cccnc3)CC2)cc1 [CBK083162T],95.8%
23,COC(=O)c1ccc(NC(=O)N2CCCC2c2nc(-c3ccccc3)c3ccccn23)cc1 (stereo not shown) [CBK046725],102%

row,SMILES,"viability at 28.5 h, 10 µM"
1,O=C(CCCc1nc(-c2ccccc2Cl)no1)NCc1cccnc1 [CBK269516],77.8%
2,Nc1ncc(-c2cncnc2)nc1NCC1CCOCC1 [CBK063877],98.1%
3,O=C(c1c[nH]c2ccccc12)N1CCC(Cc2ccccc2)CC1 [CBK200180],91.3%
4,CCn1cc(C(=O)N2CCC(C(=O)OC)CC2)c(=O)c2ccc(C)nc21 [CBK305848],110%
5,O=c1cc(O)c2ccccc2n1Cc1ccccc1F [CBK291162],86.3%
6,O=C(NCCCn1ccnc1)c1cc2ncc(Br)cn2n1 [CBK277080],97.6%
7,O=c1n(CCCNCc2ccc(Cl)cc2Cl)nc2n1CCCC2 [CBK305382],97.2%
8,COc1ccc([C@@]23CC[C@@H](NC(=O)Nc4cc(F)c(F)c(F)c4)C[C@@H]2N(C)CC3)c(F)c1OC [CBK073909T],90.6%
9,CN1C(=O)COc2ccccc2C/C=C/C[C@H]2CNCC[C@H]21 [CBK292076],107%
10,CCc1nc2cccnc2n1CCNC(=O)c1cccs1 [CBK283638],94.3%
11,N#Cc1cccc(-n2cc(-c3ccc(C(F)(F)F)cc3)nn2)c1 [CBK112957],88.1%
12,O=C1C2C3C=CC(C3)C2C(=O)N1CCN1CCN(S(=O)(=O)/C=C/c2ccccc2)CC1 (stereo not shown) [CBK263663],88.4%
13,CC(C)C(=O)Nc1nc2c(nc(OCc3ccccc3)n2C2CC(O)C(CO)O2)c(=O)[nH]1 (stereo not shown) [CBK201264],91.8%
14,CC(C)(C)NC(=O)N1CCC(Nc2nccc(C(F)(F)F)n2)CC1 [CBK028788],113%
15,CCCC(C(=O)NC(C)(C)CN1CCCCC1)n1nc(C)cc1C (stereo not shown) [CBK282061],94.8%
16,NC1CCN(C(=O)Cn2ccc3ccnc(-c4cccs4)c32)CC1 [CBK284750],85.7%
17,CC1CCCN(Cc2c(C3CCNCC3)[nH]c3ncccc23)C1 (stereo not shown) [CBK285078],78.5%
18,O=C(O)CC(NC(=O)c1ccccc1)c1ccco1 (stereo not shown) [CBK268843],87.4%
19,CN1CCC(N(C)Cc2coc3ccccc3c2=O)CC1 [CBK261578],103%
20,CCOC(=O)CN1CCN(S(=O)(=O)c2ccc3ccccc3c2)CC1 [CBK043738],93.4%
21,CCn1nc(C)c(C(C)NC(=O)c2c3c(nn2CC)CCCC3)c1C (stereo not shown) [CBK282077],85%
22,Nc1csc(C2CCOCC2)n1 [CBK019258],77.3%
23,CC1=NNC(=O)C1C(c1ccc(Cl)cc1Cl)C1C(=O)NN=C1C (stereo not shown) [CBK067756],109%
